Where “and” joins values, the source holds several entries; their conditions need not be identical. Equal values may be shown once.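 Briefly, cells in 96-well plates were exposed to five compound concentrations for 48 h, and endpoints were estimated by linear interpolation. GI50 is the concentration that inhibits growth by half. Definition used: TGI = concentration required for complete inhibition of growth.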

This passage reports TGI and GI50 results from PubChem BioAssay (NCI).

Some test systems named below: IGROV1 ovarian; OVCAR-5 ovarian; RXF 393 renal; SK-MEL-28 melanoma; CAKI-1 renal; SW-620 colon; EKVX NSCLC; OVCAR-4 ovarian; HL-60(TB) leukemia; UACC-62 melanoma.
Common to all, as to experiment: NCI tumour cell line growth inhibition, 48 h

In the case of `CC(C)=CCC/C(C)=C/CC/C(C)=C/[C@@H]1[C@@H](CO)[C@]1(C)CC/C=C(\C)CCC=C(C)C`, the TGI in the assay with IGROV1 ovarian was 27.5 µM; in the assay with OVCAR-5 ovarian it was > 100 µM; with RXF 393 renal, 72.8 µM; in the assay with SK-MEL-28 melanoma, > 100 µM; with CAKI-1 renal, > 100 µM; in the assay with SW-620 colon it was 66.9 µM. The TGI is 48.2 µM in the assay on EKVX NSCLC and > 100 µM with OVCAR-4 ovarian.
In the case of `CCCCCCOC(=O)C(N)Cc1ccc(OC)cc1` (stereo not given), the TGI in the assay with IGROV1 ovarian, in the assay on OVCAR-5 ovarian, in the assay on HL-60(TB) leukemia, in the assay on RXF 393 renal, with SK-MEL-28 melanoma and with CAKI-1 renal was > 100 µM each time. Also, the TGI with SW-620 colon, in the assay with EKVX NSCLC, with UACC-62 melanoma and with OVCAR-4 ovarian was > 100 µM in each case.
`CC1=NN(c2cccc(Cl)c2)C(=N/c2nc3ccccc3s2)/C1=C\C=C\c1ccccc1`: the TGI is 82.8 µM in the assay on IGROV1 ovarian; > 100 µM in the assay on OVCAR-5 ovarian; 92.8 µM with HL-60(TB) leukemia; > 100 µM in the assay with RXF 393 renal; > 100 µM with SK-MEL-28 melanoma; > 100 µM in the assay with CAKI-1 renal. Besides, the TGI in the assay with SW-620 colon, with EKVX NSCLC and in the assay with OVCAR-4 ovarian was > 100 µM each time.
Turning to `COC1OC(C(=O)CP(=O)(OC)OC)C(OCc2ccccc2)C(OCc2ccccc2)C1OCc1ccccc1` (stereo not given), the TGI is 35.9 µM and 35.4 µM in the assay on IGROV1 ovarian; 29.2 µM and 31.8 µM in the assay with OVCAR-5 ovarian; 59.4 µM and 47 µM with HL-60(TB) leukemia; 26.3 µM and 29.5 µM in the assay on RXF 393 renal; 40 µM and 33.2 µM in the assay on SK-MEL-28 melanoma; 36 µM and 36.7 µM in the assay with CAKI-1 renal. In addition, the TGI in the assay with SW-620 colon was > 100 µM and 58 µM; in the assay with EKVX NSCLC, 29.4 µM and 32.2 µM; in the assay with UACC-62 melanoma, 26.6 µM and 28 µM; in the assay on OVCAR-4 ovarian, 28.4 µM and 36.7 µM.
For `Cc1cc(N2CCOCC2)nc(N(CCCNc2ccnc3cc(Cl)ccc23)Cc2ccc3c(c2)OCO3)n1`, in the assay with SW-620 colon, the GI50 was 1440 nM and the TGI stood at 3.05 µM. Besides, in the assay on EKVX NSCLC, the GI50 was 2290 nM and the TGI turned out to be 5.55 µM.
With `CCOc1cc(NC(C)=O)ccc1C(=O)N/N=C/c1ccco1`, the TGI in the assay on IGROV1 ovarian, in the assay with OVCAR-5 ovarian, with HL-60(TB) leukemia, in the assay with RXF 393 renal, in the assay with SK-MEL-28 melanoma and with CAKI-1 renal was > 100 µM in each case. In addition, the TGI with SW-620 colon, in the assay with EKVX NSCLC, in the assay with UACC-62 melanoma and with OVCAR-4 ovarian was > 100 µM in each case.
On to `COC(=O)c1c(O)ccc2c1c1c(n2Cc2ccccn2)C(=O)c2ccccc2C1`, for which the TGI with IGROV1 ovarian, with OVCAR-5 ovarian, in the assay with HL-60(TB) leukemia, in the assay on RXF 393 renal, in the assay with SK-MEL-28 melanoma and with CAKI-1 renal was > 100 µM each time. In addition, the TGI with SW-620 colon, in the assay on UACC-62 melanoma and with OVCAR-4 ovarian was > 100 µM in each case.
Take `NC(CCc1ccccc1)(C(=O)O)c1ccccc1` (stereo not given): the TGI with IGROV1 ovarian, with OVCAR-5 ovarian, with RXF 393 renal, in the assay on SK-MEL-28 melanoma, with CAKI-1 renal and with SW-620 colon was > 100 µM throughout. Besides, the TGI in the assay with EKVX NSCLC, in the assay on UACC-62 melanoma and in the assay with OVCAR-4 ovarian was > 100 µM in each case.
`COc1cc(S(=O)(=O)N/N=C/C=C/c2ccccc2)c(OC)cc1NC(C)=O`: the TGI in the assay on IGROV1 ovarian, in the assay on OVCAR-5 ovarian, with HL-60(TB) leukemia, with RXF 393 renal, in the assay with SK-MEL-28 melanoma and in the assay on CAKI-1 renal was > 100 µM in each case. Besides, the TGI in the assay with SW-620 colon, in the assay on EKVX NSCLC, in the assay with UACC-62 melanoma and in the assay with OVCAR-4 ovarian was > 100 µM each time.
With `CC(C)(C)OC(=O)N1C(C2=COc3ccccc3O2)=COc2cccnc21`, the TGI in the assay with IGROV1 ovarian was 3.35 µM; with OVCAR-5 ovarian it was 3.4 µM; in the assay with RXF 393 renal, 3.06 µM; in the assay with SK-MEL-28 melanoma, 3.47 µM; in the assay on CAKI-1 renal, 6.82 µM; in the assay on SW-620 colon, 4.56 µM. The TGI came to 4.03 µM in the assay with EKVX NSCLC, 3.17 µM in the assay on UACC-62 melanoma and 4.2 µM in the assay on OVCAR-4 ovarian.
`CN(C)C/C=C(/c1ccc(Br)cc1)c1cccnc1`: the TGI is > 100 µM in the assay on IGROV1 ovarian; > 100 µM in the assay on OVCAR-5 ovarian; 0.0516 µM with HL-60(TB) leukemia; > 100 µM in the assay on RXF 393 renal; 34.1 µM in the assay on SK-MEL-28 melanoma; > 100 µM in the assay on CAKI-1 renal. Further, the TGI was > 100 µM with SW-620 colon, > 100 µM in the assay on EKVX NSCLC, 39.1 µM in the assay on UACC-62 melanoma and > 100 µM in the assay on OVCAR-4 ovarian.
On to `COc1cccc(/C=N/[N-]C(N)=O)c1[O-].[Cu+2].[OH3+].c1cnc2c(c1)ccc1cccnc12`, for which the TGI was 45.7 µM in the assay on IGROV1 ovarian; > 100 µM in the assay with OVCAR-5 ovarian; 48.7 µM with HL-60(TB) leukemia; 29.7 µM in the assay on SK-MEL-28 melanoma; 33.9 µM in the assay on CAKI-1 renal; > 100 µM with SW-620 colon. Further, the TGI is 34.4 µM in the assay with EKVX NSCLC, 22.3 µM with UACC-62 melanoma and 24.7 µM in the assay with OVCAR-4 ovarian. Moreover, in the assay on HL-60(TB) leukemia, the GI50 was 20 µM.
`O=S1c2ccccc2N=C(c2ccc3ccccc3c2)CC1c1ccccc1` (stereo not given): the TGI in the assay with IGROV1 ovarian was 40.3 µM; in the assay on OVCAR-5 ovarian it was 42.9 µM; in the assay on HL-60(TB) leukemia, 58.1 µM; with SK-MEL-28 melanoma it was > 100 µM; with CAKI-1 renal, > 100 µM; in the assay with SW-620 colon, 29.3 µM. The TGI was 91.5 µM in the assay with EKVX NSCLC, > 100 µM in the assay with UACC-62 melanoma and 56.1 µM with OVCAR-4 ovarian.
For `CCOC(=O)C(C)OC(=O)c1ccc(C)cc1` (stereo not given), the TGI in the assay with IGROV1 ovarian, in the assay with OVCAR-5 ovarian, with HL-60(TB) leukemia, in the assay on RXF 393 renal, in the assay with SK-MEL-28 melanoma and in the assay with SW-620 colon was > 100 µM in each case. Also, the TGI in the assay on EKVX NSCLC and in the assay with UACC-62 melanoma was > 100 µM in each case.
